For this experiment, the system named is castrated male Sprague Dawley rats. The experiment in a line: Ventral Prostate and Seminal Vesicle Weight In Vivo Assay. Note: key: active: the non weight adjusted prostate weight was ≦40 mg or the % Inhibition prostate weight, body weight adjusted was ≧40%@2 mg/day dosage; inactive: did not meet the specified criteria defined above. As to conditions: inhibition of testosterone-enhanced prostate weight; immature castrated rats, once daily for five days, usually orally 40 mg/kg, with testosterone propionate 2 mg/kg s.c.
As for `Cc1cc2[nH]c(C(O)C(F)(F)F)nc2cc1Cl` (stereo not drawn) [Compound 128, 1-(5-Chloro-6-methyl-1H-benzoimidazol-2-yl-)2,2,2-trifluoro-ethanol], the result was inactive.

On to `COc1cccc(Cn2c(CC(F)(F)F)nc3cc(Cl)c(Cl)cc32)c1` [Compound 129, 5,6-Dichloro-1-(3-methoxy-benzyl)-2-(2,2,2-trifluoro-ethyl)-1H-benzoimidazole], for which the result was inactive.

For the compound `FC(F)(F)Cc1nc2cc(Cl)c(Cl)cc2n1Cc1ccc(-n2cccn2)cc1` [Compound 131, 5,6-Dichloro-1-(4-pyrazol-1-yl-benzyl)-2-(2,2,2-trifluoro-ethyl)-1H-benzoimidazole], the result was inactive.

As for `FC(F)(F)Cc1nc2cc(Cl)c(Cl)cc2n1Cc1ccc(-c2csnn2)cc1` [Compound 132, 5,6-Dichloro-1-(4-[1,2,3]thiadiazol-4-yl-benzyl)-2-(2,2,2-trifluoro-ethyl)-1H-benzoimidazole], the outcome was inactive.

For `Cc1oncc1Cn1c(CC(F)(F)F)nc2cc(Cl)c(Cl)cc21` [Compound 133, 5,6-Dichloro-1-(5-methyl-isoxazol-4-ylmethyl)-2-(2,2,2-trifluoro-ethyl)-1H-benzoimidazole], the result was active.

In the case of `FC(F)(F)Cc1nc2cc(Cl)c(Cl)cc2n1Cc1cccc(OC(F)(F)F)c1` [Compound 134, 5,6-Dichloro-2-(2,2,2-trifluoro-ethyl)-1-(3-trifluoromethoxy-benzyl)-1H-benzoimidazole], the result was inactive.

Consider `N#Cc1cc2nc(C(O)C(F)(F)F)[nH]c2cc1C(F)(F)F` (stereo not drawn) [Compound 135, 2-(2,2,2-Trifluoro-1-hydroxy-ethyl)-6-trifluoromethyl-1H-benzoimdazole-5-carbonitrile], for which the outcome was inactive.

Consider `N#Cc1ccc(OCCn2c(CC(F)(F)F)nc3cc(Cl)c(Cl)cc32)cc1` [Compound 136, 4-{2-[5,6-Dichloro-2-(2,2,2-trifluoro-ethyl)-benzoimidazol-1-yl]-ethoxy}-benzonitrile], for which the outcome was active.

`O=[N+]([O-])c1ccccc1Cn1c(CC(F)(F)F)nc2cc(Cl)c(Cl)cc21` [Compound 137, 5,6-Dichloro-1-(2-nitro-benzyl)-2-(2,2,2-trifluoro-ethyl)-1H-benzoimidazole]: the outcome was active.

`FC(F)(F)Cc1nc2cc(Cl)c(Cl)cc2n1Cc1ccc(-n2cccc2)cc1` [Compound 138, 5,6-Dichloro-1-(4-pyrrol-1-yl-benzyl)-2-(2,2,2-trifluoro-ethyl)-1H-benzoimidazole]: the outcome was active.

On to `O=[N+]([O-])c1cccc(Cn2c(CC(F)(F)F)nc3cc(Cl)c(Cl)cc32)c1` [Compound 139, 5,6-Dichloro-1-(3-nitro-benzyl)-2-(2,2,2-trifluoro-ethyl)-1H-benzoimidazole], for which the result was active.

In the case of `FC(F)(F)Cc1nc2cc(Cl)c(Cl)cc2n1Cc1ccc(SC(F)(F)F)cc1` [Compound 140, 5,6-Dichloro-2-(2,2,2-trifluoro-ethyl)-1-(4-trifluoromethvlsulfanvl-benzvl)-1H-benzoimidazole], the result was inactive.

Regarding `CS(=O)(=O)c1ccc(Cn2c(CC(F)(F)F)nc3cc(Cl)c(Cl)cc32)cc1` [Compound 142, 5,6-Dichloro-1-(4-methanesulfonyl-benzyl)-2-(2,2,2-trifluoro-ethyl)-1H-benzoimidazole], the outcome was inactive.

As for `CC/C(Cn1c(CC(F)(F)F)nc2cc(Cl)c(Cl)cc21)=N/O` [Compound 144, 1-[5,6-Dichloro-2-(2,2,2-trifluoro-ethyl)-benzoimidazol-1-yl]-butan-2-one Oxime], the result was active.

As for `FC(F)(F)Cc1nc2cc(Cl)c(Cl)cc2n1Cc1ccc(OCc2ccccc2)cc1` [Compound 146, 1-(4-Benzyloxy-benzyl)-5,6-dichloro-2-(2,2,2-trifluoro-ethyl)-1H-benzoimidazole], the outcome was active.

The values are drawn from patent publication US7566733B2, “Benzimidazole derivatives useful as selective androgen receptor modulators (sarms)” (priority 2004, dated 2009).
